Reference: publication PMC10439028, “SGLT5 is the renal transporter for 1,5-anhydroglucitol, a major player in two rare forms of neutropenia” (Cellular and Molecular Life Sciences: CMLS, 2023)

Columns and labels:
[1] = biological target: T1, hSGLT5 Ala522Val (Homo sapiens, UniProt A0PJK1, A522V); experiment: Inhibition of 10 µM 1,5-AG transport by SGLT5 variant Ala522Val; assay type: cell-based; conditions: Fig. 5D
T1 construct: pUB83-hSGLT5-iso2 as well as the various SGLT5 mutants obtained were used to transduce HEK293T cells; expressed in transfected cells; host or cells: HEK293T, lentiviral transduction (pUB83)
T1 sequence (A0PJK1 1-596 A522V): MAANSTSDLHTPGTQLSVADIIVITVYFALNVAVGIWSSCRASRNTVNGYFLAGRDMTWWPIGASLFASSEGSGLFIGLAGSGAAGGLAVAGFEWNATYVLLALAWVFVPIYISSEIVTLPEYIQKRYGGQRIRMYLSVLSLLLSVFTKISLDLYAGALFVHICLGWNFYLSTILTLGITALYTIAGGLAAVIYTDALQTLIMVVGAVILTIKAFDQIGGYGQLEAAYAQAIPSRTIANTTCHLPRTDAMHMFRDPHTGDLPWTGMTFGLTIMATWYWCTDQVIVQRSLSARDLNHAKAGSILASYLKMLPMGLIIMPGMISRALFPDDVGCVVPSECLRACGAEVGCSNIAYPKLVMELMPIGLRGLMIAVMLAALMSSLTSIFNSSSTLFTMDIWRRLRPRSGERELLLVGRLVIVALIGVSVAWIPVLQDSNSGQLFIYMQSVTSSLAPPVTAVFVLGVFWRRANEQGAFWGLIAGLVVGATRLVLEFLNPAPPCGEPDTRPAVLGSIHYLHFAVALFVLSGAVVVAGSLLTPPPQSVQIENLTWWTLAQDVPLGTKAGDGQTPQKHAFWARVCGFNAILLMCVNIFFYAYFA
Procedure: The transport experiments to study the specificity of SGLT4 or SGLT5, were performed in the presence of 10 µM U-[^14C + ^12C]-mannose (for SGLT4) or 2-[^3H + ^1H]-1,5-AG (for SGLT5) and increasing concentrations of various sugars tested. The transport experiments to study the inhibition of empagliflozin, dapagliflozin or remogliflozin, on the transport of 1,5-AG by SGLT5 or its variants were performed in the presence of 10 µM 2-[^3H + ^1H]-1,5-AG and increasing concentrations of the various gliflozins tested.
SGLT5 mutants were created using the quick-change site directed mutagenesis method that enables effective mutagenesis without subcloning of the amplified PCR products. Complementary primer pairs carrying the desired replacements (Supplementary Table 3) were designed using an online tool (https://www.agilent.com/store/primerDesignProgram.jsp). The PCR protocol was carried out following the manufacturer instructions regarding the KOD HOT Start polymerase kit (TOYOBO™, Novagen). The amplified DNA was cleaned-up from the reactions constituents using the GeneJET PCR purification Kit (Thermo Scientific™) and the size of the DNA fragment were verified by DNA agarose-gel electrophoresis. […]

[2] = biological target: T1, hSGLT5 Ala522Val; experiment: 1,5-AG uptake in HEK293T cells overexpressing SGLT5 variant Ala522Val; assay type: cell-based
Procedure: For a typical transporter experiment we proceeded as follows. […] To minimize cell loss during the various washing steps in the radioactive uptake experiments, the wells where the cells were seeded were previously coated with poly- D-lysine, which improved their adhesion to the plastic surface of the wells. For this, each well of the 24-well plates was treated with 200 µl of a 0.01% poly-L-lysine solution for 10 min, washed 3 times with 1 ml of sterilized water and left to dry for 2 h. Only then could the 24-well plates be seeded with the appropriate cell lines and cultured overnight at 37 °C in 5% CO2.
On day two, the radioactive uptake assay could be performed. The cell culture media was removed by aspiration and cells were incubated for 20 min at 37 °C and 5% CO2 with a basal medium (10 mM HEPES, pH 7.4, 1 mM CaCl2, 1 mM MgCl2, 2 mM KCl) containing 140 mM choline chloride to deplete intracellular Na^2+ ions. […]
Once the uptake medium was added to the cells, the plates were incubated at 37 °C in 5% CO2 during the required time. […] In each experiment, the transport activities were calculated after subtracting a “blank” value, corresponding to the radioactivity in the appropriate control cells (HEK293T cells that were stably or transiently transfected with one of the parent plasmids pEF6/MycHisA, pEF6HisB, pUB82 or pUB83 with no inserted cDNA) that were analyzed in parallel. […]

Compound	effect of mutation on concentration of empagliflozin needed to inhibit SGLT5 [1]	Vmax ([2]; variant Ala522Val)	effect of mutation on ability of SGLT5 to transport 1,5-AG ([2]; variant Ala522Val (control))
OC[C@H]1O[C@@H](c2ccc(Cl)c(Cc3ccc(O[C@H]4CCOC4)cc3)c2)[C@H](O)[C@@H](O)[C@@H]1O [empagliflozin]	did not affect significantly		
OC[C@H]1OC[C@H](O)[C@@H](O)[C@@H]1O [1,5-AG, 1,5-anhydroglucitol]		18.3 ± 0.5 pmol/min/10^5cells	no effect
